Data published in patent US20190337899A1, “QUINOLINE SULFONAMIDES USEFUL TO TREAT DISEASE” (priority 2015, published 2019).

Key:
CSM14.1 neuronal cells = test: Cell survival assay (thapsigargin-treated CSM14.1 neuronal cells, CellTiter-Glo); assay type: cell-based; settings: compound 2 hrs before about 15 μM thapsigargin, overnight, CellTiter-Glo luminescence
Experimental: CSM14.1 neuronal cells were maintained in Complete Medium at 32 ° C.; wherein the Complete Medium contained Dulbecco's modified eagle medium (DMEM) with 10% fetal bovine serum (FSB), 1% L-glutamine, 100 IU/mL penicillin, and 100 μg/mL streptomycin. The cells were recovered from cultures by trypsinization and then seeded in 384 well plates (Greiner #781098) at a concentration of 1,000 cells/well in 20 μL of DMEM Assay Medium, wherein the DMEM Assay Medium contained 2% FBS, 100 IU/mL penicillin, and 100 μg/mL streptomycin. Seeding was performed using a MultiDrop Combi reagent broadcaster. The plates were incubated overnight at 32° C. A test compound was prepared by 2-fold serial dilution in 100% DMSO using a BIOMEK® 2000 liquid handler (Beckman Coulter). A dose-response curve containing 10 concentrations of the test compound was obtained. Using a BIOMEK® FX liquid handler (Beckman Coulter), 2.5 μL of the test compound was transferred from the 100% DMSO serial dilution plate to an intermediate plate containing 47.5 μL of DMEM Assay Medium containing 2% FBS, 100 IU/mL penicillin, and 100 μg/mL streptomycin and mixed. To reduce or eliminate the interference from the compound's precipitation, 6 μL of the diluted compound was immediately transferred to the assay plate to achieve a high compound concentration of 100 μM in 99% DMEM Assay Medium and 1% DMSO. After the assay plates were incubated for 2 hrs, 4 μL of 112.5 μM thapsigargin (TG) (DMSO stock diluted into Assay TC Medium) was dispensed into each testing well with a MultiDrop Combi reagent broadcaster for a final concentration of about 15 μM TG. The tissue culture media (4 μL) containing vehicle only was transferred manually to each control cell using a 16 channel electronic pipette. After the plates were incubated overnight (about 16 to 24 hrs), CELLTITER-GLO® (Promega) (16 μL) was added to all wells and luminescence was measured. High luminescence indicates cell survival. The biological results are summarized in Table 1 where A represents a cell viability EC50 less than 10 μM and B represents a value greater than or equal to 10 μM and less than 20 μM.

HEK293 cells; N2a cells = test: Cell rescue assay: protection against thapsigargin (TG)-induced cell-death (AlamarBlue); assay type: cell-based, Human (HEK293); Mouse (N2a); settings: Homo sapiens; compound at 20 μM, 2 hrs before thapsigargin (15 μM HEK293, 1 μM N2a), 24 hrs, viability as % RFU of control; read-out: Cell Survival %
Experimental: Protection against Thapsigargin (TG)-induced Cell-death. Human embryonic kidney (HEK293) cells were grown in Dulbecco's Modified Eagle's Medium (DMEM) with 10% FBS and 1% antibiotic antimycotic solution (ABAM). Mouse neuroblastoma (N2a) cells were grown in 1:1 DMIEM:OPTI-MIEM® with 5% FBS and 1% ABAM. All cells were grown in 10% CO2 in a humidified environment of the incubator. Cells grown in 96-well plates were exposed to a test compound (20 μM) for 2 hrs before addition of thapsigargin (15 μM for HEK293 cells and 1 μM for N2a cells) to induce ER stress. After incubation in cell-culture incubator for 24 hrs, ALAMARBLUE® regent (10% v/v) was added to the wells. Fluorescence reading was taken 2 hrs after the addition of the ALAMARBLUE® regent. Cell-viability was calculated as a percentage of relative fluorescence unit (RFU) compared to control. […] The biological results are summarized in Table 2, where each compound was tested at 20 μM and where A represents a viability greater than 50%, B represents a viability greather than 10% and less than or equal to 50%, C represents a value equal to or below 10% and greater than 1%.

SH-SY5Y cells = test: Cell rescue assay: protection against β-amyloid-induced cell toxicity; assay type: cell-based; settings: Homo sapiens, 96 h, 7.5 uM compound, AB1-42 at 10 uM, 4 days, OD 490 nm, read-out: Cell Survival % (cell rescue)
Experimental: Protection against β-amyloid-induced cell toxicity. Chonpathompikunlert et al. Eu. J. Pharmacol. 2011, 650, 544-549. Human SH-SY5Y cells are suspended in media containing 2% FBS and 2X Gentamicin. Transfer 100 ul/well culture to 96-well plate (20,000 cells/well; passage #5) and incubate overnight. Prepare compound samples at 30 uM. Add 50 ul of the samples to the cells [[…]] and incubate 3 hours. Make stock of 40 uM AB1-42 peptide in assay media. Transfer 50 ul/well to cells/compounds in assay plate. The final assay volume is 200 ul/well, containing 2% FBS, 2× Gentamicin, 7.5 uM compound and AB1-42 at 10 uM. Incubate for 4 days then add 20 µl of Promega Substrate Cell Titer 96 Aqueous One Solution Reagent to each well. Incubate 37° C. and read OD at 490 nm. The results are summarized in Table 3, where A represents a value greater than 50% cell rescue, B represents a value greater than 10% and less than or equal to 50% cell rescue, and C represents a value greater than 1% and less than or equal to 10% cell rescue.

SERCA = biological target: T1, SERCA (Homo sapiens, UniProt P16615); test: Ca-ATPase assay (NADH-linked, enzyme-coupled ATPase assay); assay type: biochemical; settings: microsomal preparations from HEK 293 cells, Vmax from Hill fit of ATPase calcium-dependence
T1 construct: microsomal preparations from HEK 293 cells; endogenous in cells; host or cells: HEK 293 cells (microsomal preparation)
Experimental: A Ca-ATPase assay was performed using microsomal preparations from HEK 293 cells at a series of calcium concentrations corresponding to the physiological range, relative to controls. The ATP hydrolysis rate was measured over a range of calcium concentrations in the presence of test compounds using an NADH-linked, enzyme-coupled ATPase assay adapted for 96-well microplates, with Vmax determined by fitting the ATPase calcium-dependence to the Hill function. Each well contained 2 μg or 7 μg of SR vesicles (optimized for skeletal or cardiac SR, respectively), 50 mM MOPS (pH 7.0), 100 mM KCl, 5 mM MgCl2, 1 mM EGTA, 0.2 mM NADH, 1 mM phosphoenol pyruvate, 5 IU pyruvate kinase, 5 IU lactate dehydrogenase, and 3.5 μg/mL A23187 (a calcium ionophore). CaCl2 was added to set free [Ca^2+] to the specific values. The assay was started upon addition of ATP at a final concentration of 5 mM, and read in a SpectraMax Plus microplate spectrophotometer. The results are summarized in Table 4, where A represents an increase in SERCA Vmax greater than 50% and B represents a value greater than 10% and less than or equal to 50%.

Ob/ob mice = test: Effect of a SERCA agonist on the level of blood glucose; assay type: in vivo; settings: Mus musculus, ip, 96 h, 50 mg/kg i.p. once a day for 5 days, fasting glucose 4 days after administration vs baseline, read-out: Glucose level reduction
Experimental: Ob/ob mice (10 weeks old, n=7) were intraperitoneally (i.p.) injected with 100 μL of a solution containing 0 (vehicle) or 50 mg/kg of a test compound once a day for a total of 5 days. Fasting glucose was measured at baseline and 4 days after the administration of the test compound. Glucose levels were measured in blood samples drawn from the tail vein using a handheld glucose sensor. Compound effects on blood glucose are shown in Table 5 where A represents a 10-20% reduction in blood glucose, B represents a 21-30% reduction in blood glucose, and C represents a greater than 30% reduction in blood glucose levels.

T1 sequence (P16615 whole entry): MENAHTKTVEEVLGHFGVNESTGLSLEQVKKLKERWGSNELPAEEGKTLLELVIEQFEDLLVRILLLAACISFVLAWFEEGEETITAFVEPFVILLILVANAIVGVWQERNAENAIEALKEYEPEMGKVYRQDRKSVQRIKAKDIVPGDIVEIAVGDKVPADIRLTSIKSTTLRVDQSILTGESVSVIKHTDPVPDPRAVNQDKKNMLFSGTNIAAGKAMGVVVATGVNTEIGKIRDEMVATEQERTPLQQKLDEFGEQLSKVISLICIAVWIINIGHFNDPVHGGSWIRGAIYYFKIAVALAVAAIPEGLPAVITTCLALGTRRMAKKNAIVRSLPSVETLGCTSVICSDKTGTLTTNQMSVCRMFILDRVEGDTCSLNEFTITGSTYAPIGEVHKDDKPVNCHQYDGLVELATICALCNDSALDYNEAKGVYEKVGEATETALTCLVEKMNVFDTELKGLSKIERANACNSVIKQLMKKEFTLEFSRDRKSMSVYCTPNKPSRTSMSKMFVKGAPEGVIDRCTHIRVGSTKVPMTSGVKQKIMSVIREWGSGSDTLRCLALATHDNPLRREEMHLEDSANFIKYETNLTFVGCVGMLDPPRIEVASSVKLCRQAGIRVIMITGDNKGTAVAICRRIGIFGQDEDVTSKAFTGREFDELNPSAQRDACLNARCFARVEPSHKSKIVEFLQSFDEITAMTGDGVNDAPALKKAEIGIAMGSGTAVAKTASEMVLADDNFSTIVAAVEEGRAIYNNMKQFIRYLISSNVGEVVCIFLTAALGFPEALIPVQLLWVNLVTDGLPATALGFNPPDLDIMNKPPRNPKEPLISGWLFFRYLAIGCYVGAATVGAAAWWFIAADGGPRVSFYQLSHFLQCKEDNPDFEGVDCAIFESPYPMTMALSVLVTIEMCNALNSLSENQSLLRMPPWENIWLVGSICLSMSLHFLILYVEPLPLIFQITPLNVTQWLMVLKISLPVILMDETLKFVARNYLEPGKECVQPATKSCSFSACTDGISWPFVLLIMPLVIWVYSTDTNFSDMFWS

Row | Compound | EC50 (CSM14.1 neuronal cells) [µM] | viability at 20 µM (HEK293 cells; N2a cells) [%] | viability at 7.5 µM (SH-SY5Y cells) [%] | SERCA Vmax Increase (SERCA) | inhibition in vivo at 50 mg/kg (Ob/ob mice) [%]
1 | COc1c(C)cccc1S(=O)(=O)Nc1cccc2ccc(C)nc12 [D3, 2-Methoxy-3-methyl-N-(2-methylquinolin-8-yl)benzenesulfonamide] | 10 to 20 | 10 to 50 | 10 to 50 | A (A represents an increase in SERCA Vmax greater than 50%) | 10 to 20
2 | Cc1ccc2cccc(NS(=O)(=O)c3ccc(C#N)cc3)c2n1 [D6, 4-Cyano-N-(2-methylquinolin-8-yl)benzenesulfonamide] | 10 to 20 | 10 to 50 | 1 to 10 | A (A represents an increase in SERCA Vmax greater than 50%) | 21 to 30
3 | Cc1ccc2cccc(NS(=O)(=O)c3cc4ccccc4s3)c2n1 [D4, N-(2-Methylquinolin-8-yl)benzo[b]thiophene-2-sulfonamide] | 10 to 20 | > 50 | 10 to 50 | B (B represents a value greater than 10% and less than or equal to 50%) | > 30
4 | CCOc1ccc(S(=O)(=O)Nc2cccc3ccc(C)nc23)cc1 [D2, 4-Ethoxy-N-(2-methylquinolin-8-yl)benzenesulfonamide] | < 10 | 10 to 50 | > 50 | A (A represents an increase in SERCA Vmax greater than 50%) | > 30
5 | Cc1ccc2cccc(NS(=O)(=O)c3ccc(C(F)(F)F)cc3)c2n1 [D5, 4-Trifluoromethyl-N-(2-methylquinolin-8-yl)benzenesulfonamide] | < 10 | > 50 | 10 to 50 | A (A represents an increase in SERCA Vmax greater than 50%) | 21 to 30
6 | Cc1ccc2cccc(NS(=O)(=O)c3ccc(C)o3)c2n1 [D9, 5-Methyl-N-(2-methylquinolin-8-yl)furan-2-sulfonamide] | 10 to 20 | 10 to 50 | 10 to 50 | B (B represents a value greater than 10% and less than or equal to 50%) | 10 to 20
7 | Cc1ccc2cccc(NS(=O)(=O)c3ccc(C(C)(C)C)cc3)c2n1 [D10, 4-(tent-Butyl)-N-(2-methylquinolin-8-yl)benzenesulfonamide] | 10 to 20 | 10 to 50 | 10 to 50 | A (A represents an increase in SERCA Vmax greater than 50%) | 21 to 30
8 | Cc1ccc2cccc(NS(=O)(=O)c3ccc(N(C)C)cc3)c2n1 [D7, 4-Dimethylamino-N-(2-methylquinolin-8-yl)benzenesulfonamide] | 10 to 20 | 10 to 50 | 1 to 10 | B (B represents a value greater than 10% and less than or equal to 50%) | 21 to 30
9 | Cc1ccc2cccc(NS(=O)(=O)c3ccc(OC(C)C)cc3)c2n1 [D1, 4-Isopropoxy-N-(2-methylquinolin-8-yl)benzenesulfonamide] | < 10 | > 50 | > 50 | B (B represents a value greater than 10% and less than or equal to 50%) | > 30
10 | Cc1ccc2cccc(NS(=O)(=O)c3cc(Br)cs3)c2n1 [D8, 4-Bromo-N-(2-methylquinolin-8-yl)thiophene-2-sulfonamide] | 10 to 20 | > 50 | 10 to 50 | B (B represents a value greater than 10% and less than or equal to 50%) | > 30
